Laboratory results: PubChem BioAssay AID1241 (SRMLSC, 2008)

Assay: NF-kB promoter reporter activators, neuronal cells, dose response, cell-based, SH-SY5Y, luciferase (AID 1241)
Conditions: fold induction

Structure (SMILES) | EC50 [nM]
COc1ccc(-c2cc(-c3ccccc3O)[nH]n2)cc1OC | 2440
Cc1ccc(-c2nc(Nc3ccccc3)n[nH]2)cc1 | 2290
Oc1ccccc1/C=N/Nc1cccc2cccnc12 | 3580
O=C(Nc1ccccc1)c1cc2ccccc2o1 | 1240
Cc1csc(NC(=O)c2cc3c(s2)CCC3)n1 | 1050
COc1ccc(-c2cn3c4c(sc3n2)CCCC4)cc1 | 650
Cc1ccc(O)c(NC(=O)c2noc3c2CCCCC3)c1 | 9290
Fc1ccccc1-c1nc(-c2ccccc2)no1 | 4000
O=C(Nc1nc2c(s1)CCCC2)c1ccc(Br)o1 | 1290
N/C(=N\N=C\c1ccc2c(c1)OCO2)c1nonc1N | 277
Cc1ccc2nc(NC(=S)NC(=O)c3cccs3)sc2c1 | 2230
O=C(/C=C/c1ccco1)N1CCc2ccccc21 | 1040
Cc1ccsc1/C=N/Nc1cccc(C(=O)O)c1 | 1050
Cc1ccc(C(=O)Nc2ccc3nccnc3c2)cc1 | 1110
CC(=O)Nc1cccc(-c2csc(Nc3ccccn3)n2)c1 | 2670
COc1ccc(C2=Nc3cc(C)ccc3OC2)cc1 | 1950
CCCCCCCOc1ccc(OC(=O)c2ccncc2)cc1 | 107
O=C1/C(=C\c2ccco2)CCC/C1=C\c1ccco1 | 5000
CN(C)C(=S)Nc1nc2ccccc2s1 | 15100
CCOC(=O)CSc1nc2cc(OC)ccc2cc1C#N | 144
Cc1ccc2nc(-c3ccc(NC(=O)COC(=O)c4ccc(=O)[nH]c4)cc3)sc2c1 | 660
COc1ccccc1Oc1ccc(N/C=C/C(=O)c2ccco2)cc1 | 7130
CC1CCN(C(=O)c2cc(-c3ccccc3O)on2)CC1 | 8790
Cc1ccc(/C=C/C(=O)N2CCc3ccccc32)o1 | 1330
O=S1(=O)N=C(Nc2nc3c(s2)CCCC3)c2ccccc21 | 21800
COC(=O)c1ccc(-c2ccc(Cl)cc2)nc1C | 4440

Structure (SMILES) | EC50 [nM]
O=C(c1ccccc1)c1cnc(-c2ccc(Cl)cc2)s1 | 1250
O=C(/C=C/Nc1ccccc1F)c1cccs1 | 413
Oc1c(C(Nc2ccccn2)c2ccccn2)ccc2cccnc12 (stereo not given) | 3990
Cn1cccc1C(=O)OCc1csc(-c2ccccc2)n1 | 768
COc1ccc(-c2cn3cc(C)ccc3n2)cc1OC | 3370
Cc1cccc(Nc2nc3ccccc3s2)c1C | 4270
O=C(Nc1cccc(O)c1)c1noc2c1CCc1ccccc1-2 | 426
CC(=O)c1cnc2cc(-c3ccc(C)cc3)nn2c1C | 3260
N#C/C(=C\c1ccc(OCc2ccc(C(=O)O)cc2)cc1)C(=O)N1CCOCC1 | 12100
COc1ccc(NC(=O)c2cc3ccccn3n2)cc1 | 958
C(=N\Nc1nc(-c2ccccc2)cs1)/c1ccco1 | 1700
N#C/C(=N/Nc1ccc([N+](=O)[O-])cc1)C(=N)N1CCCCC1 | 2610
O=C(/C=C/c1ccccc1Cl)Nc1cccc(O)c1 | 1120
COc1ccc(-c2nc(-c3ccc(Br)o3)no2)cc1 | 2010
CC1=NC(=O)C(N=Nc2cccc(C(=O)O)c2)N1c1ccccc1 (stereo not given) | 781
CC(=Nc1ccccc1)c1sc2ccccc2c1O | 6490
N#C/C(=N\Nc1ccc(F)cc1)C(=N)N1CCCCCC1 | 2170
CC(=O)Nc1ccc2oc(-c3cc(F)c(F)cc3Cl)nc2c1 | 817
CCN(CC)c1ccc(NC(=O)c2ccc(Br)o2)cc1 | 23900
CCCCCCCOc1ccc(OC(=O)c2cccnc2)cc1 | 161
OCc1cn(-c2ccccc2)nc1-c1cc2ccccc2o1 | 6680
COc1ccc(C(=O)Nc2cccc(C)c2)cc1 | 6190
Clc1c(CSc2nc3ccccc3o2)nc2ccccn12 | 1960
COc1cc2c(cc1NC(=O)C1CCCO1)oc1ccccc12 (stereo not given) | 5780
COc1ccc(NC(=O)N2CCc3ccccc32)cc1 | 697
CCC(C)c1ccc(NC(=O)c2cccs2)cc1 (stereo not given) | 734

Structure (SMILES) | EC50 [nM]
CCOC(=O)C1=C(C)n2c(s/c(=C/c3cccc([N+](=O)[O-])c3)c2=O)=NC1c1ccc(O)c(OC)c1 (stereo not given) | 2100
CC(C)c1ccc(-n2cnn(-c3ncccc3[N+](=O)[O-])c2=O)cc1 | 1590
COC(=O)c1sc(NC(=O)c2cc3c(s2)CCCC3)nc1C | 13600
O=C(Nc1ccc(F)cc1)/C(Cl)=C/c1ccccc1 | 23400
CN1/C(=C/C(=O)c2cccs2)Sc2ccccc21 | 685
O=C(/C=C/Nc1ccc(Oc2ccccc2)cc1)c1ccco1 | 1210
CCc1ccc(NC(=O)c2cnn(-c3ccccc3)c2C)cc1 | 2560
COc1ccc(-c2nc(-c3ccc(Br)cc3)no2)c(OC)c1 | 2560
Cn1ccc(C(=O)Nc2ccc(Br)cc2Br)n1 | 29500
CN(C)c1ccc(C(=O)/C=C/c2ccco2)cc1 | 1960
Cc1ccc(C(=O)Nc2ncc(Cc3ccc(F)cc3)s2)o1 | 6160
Nc1nc(Nc2ccccc2)nc2ccccc12 | 1380
Fc1c(F)c(F)c(N/N=C/c2c[nH]c3ccccc23)c(F)c1F | 3860
Cc1cc(C)c2nc(NC(=O)C3CCCO3)sc2c1 (stereo not given) | 18600
COc1ccc2nc(SCc3ccccc3)nc(C)c2c1 | 6570
CC(C)c1cc(C(=O)Nc2ccc3c(c2)OCO3)no1 | 3280
Cn1cccc1/C=C1\CCc2ccccc2C1=O | 1630
Cc1ccc(NC2=Nc3ccccc3CS2)cc1 | 1340
Cc1ccc(Cc2cnc(NC(=O)c3cccs3)s2)cc1 | 4960
COC(=O)CSc1nc2cc(OC)ccc2cc1C#N | 295
COc1ccc(NC(=O)c2csc3c2CCCC3)cc1 | 16700
c1ccc(COc2ccc(OCCCn3cncn3)cc2)cc1 | 19800
Cc1ccc(OCc2nc(-c3cccs3)no2)c([N+](=O)[O-])c1 | 769
CN(C)c1ccc(-c2nnc(-c3cccs3)o2)cc1 | 2240
CC(C)N=C1NN=C(c2ccc(Cl)c(Cl)c2)CS1 | 1420

Continued by falling EC50, values first:

EC50 [nM] | Structure (SMILES)
27000 | C=CCNc1oc(/C=C/c2ccccc2)nc1C#N
24900 | Cc1ccccc1/C=C1\CCCc2ccccc2C1=O
22400 | COc1ccc(-c2cn3cccc(C)c3n2)cc1F
17400 | CCOC(=O)/C(=C\c1ccccc1)C(=O)c1cc(C(C)=O)c(Nc2ccccc2)s1
16400 | CCc1ccc(-c2cc(N)n(-c3ccccc3)n2)cc1
16000 | COc1ccc(-c2cc(-c3cc(C)ccc3O)[nH]n2)cc1
15400 | O=C(COc1ccccc1Cl)Nc1ccc(Cl)cn1
12600 | c1ccc(CSCc2cn3ccsc3n2)cc1
12000 | CCCCn1cnc2sc(-c3ccccc3)cc2c1=O
11300 | Cc1nn(-c2ccccc2)c(Cl)c1/C=N/Nc1ccc(Cl)c(C(=O)O)c1
10900 | COc1cccc(-c2nc3ccccc3s2)c1
10400 | Cc1ccc(NC(=O)c2cc3c(s2)CCCC3)cc1
9650 | Fc1cccc(C2NN=C(c3ccccc3)S2)c1 (stereo not given)
7650 | Cc1cccnc1NCc1ccc(O)c2ncccc12
7390 | CCN(CC)c1ccc(NC(=O)c2ccccc2F)cc1
6600 | N#Cc1cccc(NCC(=O)Nc2ccc3c(c2)OCCO3)c1
5810 | CC(C)c1ccc(Nc2nc(CC(=O)O)cs2)cc1
5640 | COc1ccccc1/C=C/C(=O)Nc1ccc2c(c1)CCC2
4950 | NC(=O)c1ccccc1N/C=C/C(=O)c1cccs1
4940 | Cc1[nH]n(-c2cccc(Cl)c2)c(=O)c1C=NCc1ccco1

EC50 [nM] | Structure (SMILES)
4630 | Cc1ccc(-c2nnc(SCc3ccccc3F)o2)cc1
4620 | Cc1occc1C(=O)Nc1cccc2ccccc12
3910 | Nc1ccc(O)cc1C(=O)OCC(=O)c1ccc(C2CCCCC2)cc1
3860 | CN(c1ccc(O)cc1)c1nc(-c2cccs2)cs1
3630 | O=[N+]([O-])c1ccc(N/N=C/c2ccc[nH]2)cc1
3620 | Cc1ccc2nc(-c3ccc(NS(=O)(=O)c4ccc(F)c(F)c4)cc3)sc2c1
3440 | Cc1ccc(-c2nnc(-c3ccccc3)o2)cc1
2980 | COc1ccc2c(c1OC)C(=O)OC2Nc1nc(-c2ccc(-c3ccccc3)cc2)cs1 (stereo not given)
2680 | Nc1cccn2c(-c3ccc(Cl)c(Cl)c3)cnc12
2320 | CCOC(=O)c1cnc(Nc2nc3ccccc3o2)nc1CSC(=S)N(CC)CC
2290 | COc1ccc(-c2cc(=O)c3c(O)c(OC)c(O)cc3o2)cc1
2200 | CC(=Nc1cccc(O)c1)c1sc2ccccc2c1O
2180 | COc1cccc(-c2noc(-c3cccs3)n2)c1
2060 | Cc1ccc(/C=C/c2nc3ccccc3[nH]2)o1
2060 | COc1ccc2c(c1)CC/C2=N\OC(=O)c1cccc(C)c1
1800 | Cc1ccc(NC(=S)N2CCC(c3ccccc3)C2)c(Cl)c1 (stereo not given)
1650 | COc1ccc(-c2csc(Nc3ncccc3C)n2)cc1
1600 | O=C(COc1ccc(CO)cc1Cl)Nc1ccc(F)cc1
1380 | O=C(Nc1cnc2ccccc2c1)c1ccco1
1340 | O=C(NCCSc1ccccc1)c1ccc(Br)cc1

EC50 [nM] | Structure (SMILES)
1330 | O=c1oc2ccccc2cc1-c1nnc(NCc2ccco2)s1
1300 | COc1ccc(Cn2c(C3CC3)nc3ccc(NC(=O)C4CC4)cc3c2=O)cc1
1290 | Cc1ccc(-n2cc3ccc([N+](=O)[O-])cc3n2)cc1
1190 | Cc1cccc(Nc2nc(-c3ccccn3)cs2)n1
1120 | CC(C)(C)c1ccc(C(=O)Nc2cnccn2)cc1
1070 | O=C(Nc1nc2c(s1)CCCC2)c1ccc(Br)s1
1070 | O=C(/C=C\c1ccccc1)Nc1nccs1
1050 | COc1cccc(-c2nc3cc(C)ccc3o2)c1
998 | Cc1cccc(NC(=O)c2cnc3sccn3c2=O)c1
997 | COC(=O)CSc1nc2cc3c(cc2cc1C#N)OCO3
978 | O=C(Nc1ccc(N2CCCCC2)cc1)c1ccccc1
956 | COc1ccc(C(=O)NCCSc2ccccc2)cc1
868 | c1ccc(-c2cnc(-c3ccccc3)nc2)cc1
861 | Clc1ccc(-c2cn3c(n2)-c2ccccc2C3)cc1Cl
818 | Fc1ccccc1SCc1nnc(-c2ccccc2Br)o1
639 | Oc1ccccc1-c1cc(-c2ccc3c(c2)OCCO3)n[nH]1
328 | Cc1nnc(SCC(=O)Nc2ccc(-c3nc4ccccc4s3)cc2)s1
272 | COc1ccc(/C=N/N=C(\N)c2nonc2N)cc1
